In patent US20190225989A1, “GENE KNOCKIN METHOD AND KIT FOR GENE KNOCKIN” (Institute of Hematology and Blood Disease Hospital, CAMS & …, priority 2018, published 2019):

B1: RAD51: key factor in the homologous recombination pathway, given as EF1-driven expression plasmid (protein, UniProt Q06609 2-339, looked up)
DNA repair protein RAD51 …: AMQMQLEANADTSVEEESFGPQPISRLEQCGINANDVKKLEEAGFHTVEAVAYAPKKELINIKGISEAKADKILAEAAKLVPMGFTTATEFHQRRSEIIQITTGSKELDKLLQGGIETGSITEMFGEFRTGKTQICHTLAVTCQLPIDRGGGEGKAMYIDTEGTFRPERLLAVAERYGLSGSDVLDNVAYARAFNTDHQTQLLYQASAMMVESRYALLIVDSATALYRTDYSGRGELSARQMHLARFLRMLLRLADEFGVAVVITNQVVAQVDGAAMFAADPKKPIGGNIIAHASTTRLYLRKGRGETRICKIYDSPCLPEAEAMFAINADGVGDAKD
modifications: expressed from EF1 plasmid

Columns and labels:
Type in all cases: cell-based, human
[1] = tested on: CTNNB1 locus in the H1 ES cells; test: Effects of small molecules on HDR efficiency, FACS; details: FACS day 3; for effect on HDR efficiency at the CTNNB locus: donor pD-mNeonGreen-sg-HA300-300 bp, added first 24 h: RS-1 10 μM, Nu7441 2 μM, SCR7 1 μM, Brefeldin A 0.1 μM, L755507 5 μM
Experimental: (§1) In this experiment, the H1 ES cells were evenly split into eight wells after nucleofection with Cas9/sgRNA and the relevant double cut donor (pD-mNeonGreen-sg-HA300-300 bp or pD-GFP-sg-HA300-300 bp). DMSO control (0.1%), RS-1 (10 μM), Nu7441 (2 μM), SCR7 (1 μM), Brefeldin A (0.1 μM), L755507 (5 μM), Nocodazole (100 ng/mL), or Nu7441 (2 μM) and SCR7 (1 μM) were added in the wells for the first 24 h and then the medium was changed with fresh medium thereafter. Three days after nucleofection, cells were harvested for FACS analysis to determine the HDR efficiency in each condition.

[2] = tested on: PRDM14 locus in the H1 ES cells; test: Effects of small molecules on HDR efficiency, FACS; details: FACS day 3; for effect on HDR efficiency at the PRDM14 locus: donor pD-GFP-sg-HA300-300 bp, added first 24 h: RS-1 10 μM, Nu7441 2 μM, SCR7 1 μM, Brefeldin A 0.1 μM, L755507 5 μM
Experimental: as §1

PRDM14 locus in iPSCs [3] = test: Effects of small molecules and factors on HDR efficiency, FACS
Source text: (§2) In this experiment, the verified highly efficient pD-sg-HA300-300 bp double cut donor and multiple small molecules were used to examine the effects on HDR of both the CTNNB1 and PRDM14 loci in iPSCs. Multiple small molecules include RS-1 (a stimulator of human homologous recombination protein RAD51), NU7441 (a DNA-PKcs inhibitor), SCR7 (a DNA ligase IV inhibitor), Brefeldin A, L755507, and
(§3) iPSCs were evenly split into eight wells after nucleofection with Cas9/sgRNA and the relevant double cut donor (pD-mNeonGreen-sg-HA300-300 bp or pD-GFP-sg-HA300-300 bp). DMSO control (0.1%), RS-1 (10 μM), Nu7441 (2 μM), SCR7 (1 μM), Brefeldin A (0.1 μM), L755507 (5 μM), Nocodazole (100 ng/mL), or Nu7441 (2 μM) and SCR7 (1 μM) were added in the wells for the first 24 h and then the medium was changed with fresh medium thereafter. Three days after nucleofection, cells were harvested for FACS analysis to determine the HDR efficiency in each condition.
(§4) The plasmid encoding RAD51, Ad4E1B-Eorf46, or CCND1 was co-transfected with Cas9, sgRNA, and donor plasmid (pD-mNeonGreen-sg-HA300-300 bp or pD-GFP-sg-HA300-300 bp). Three days after transfection, cells were harvested for FACS analysis to determine the HDR efficiency in each condition.
(§5) In this experiment, CCND1 and Nocodazole were used together to examine the effects on HDR of both the CTNNB1 and PRDM14 loci in iPSCs. The plasmid encoding CCND1 was co-transfected with Cas9, sgRNA, and donor plasmid (pD-mNeonGreen-sg-HA300-300 bp or pD-GFP-sg-HA300-300 bp). Nocodazole (100 ng/mL) was added into the medium at 0-24 h after transfection. Three days after incubation, cells were harvested for FACS analysis to determine the HDR efficiency in each condition.

CTNNB1 locus in iPSCs [4] = test: as above; details: for effect on HDR efficiency at the CTNNB locus: donor pD-mNeonGreen-sg-HA300-300 bp, added first 24 h: RS-1 10 μM, Nu7441 2 μM, SCR7 1 μM, Brefeldin A 0.1 μM, L755507 5 μM
Source text: as §2, §3, §4, §5

CTNNB1 locus in iPSCs [5] = test: sgRNA cleavage efficiency at CTNNB1; details: targets 39 bp before the stop codon, data not shown
PRDM14 locus in iPSCs [6] = test: sgRNA cleavage efficiency at PRDM14; details: cleavage site 4 bp downstream of the stop codon, data not shown
[7] = donor pD-GFP-sg-HA300-300 bp, added first 24 h: RS-1 10 μM, Nu7441 2 μM, SCR7 1 μM, Brefeldin A 0.1 μM, L755507 5 μM, FACS day 3, vs DMSO
[8] = Nocodazole 100 ng/mL first 24 h
[9] = Nocodazole 100 ng/mL first 24 h, FACS day 3, vs DMSO, P<0.001

Molecule | effect on HDR efficiency at the CTNNB locus [1] | effect on HDR efficiency at the PRDM14 locus [2] | effect on HDR efficiency at the PRDM14 locus (PRDM14 locus in iPSCs [3]; [7]) | effect on HDR efficiency at the CTNNB locus (CTNNB1 locus in iPSCs [4]; FACS day 3, vs DMSO) | also measured
C[C@H]1CCC/C=C/[C@@H]2C[C@H](O)C[C@H]2[C@H](O)/C=C/C(=O)O1 [Brefeldin A] | less pronounced improvement | only at the CTNNB locus | only at the CTNNB locus | less pronounced improvement | 
CCCCCCNC(=O)Nc1ccc(S(=O)(=O)Nc2ccc(CCNC[C@H](O)COc3ccc(O)cc3)cc2)cc1 [L755507] | did not show significant improvement | did not show significant improvement | did not show significant improvement | did not show significant improvement | 
COC(=O)Nc1nc2ccc(C(=O)c3cccs3)cc2[nH]1 [Nocodazole] |  |  |  |  | increase of HDR efficiency at the CTNNB locus [1, 8]: ~50%; increase of HDR efficiency at the PRDM14 locus [2, 8]: ~50%; increase of HDR efficiency at the PRDM14 locus (PRDM14 locus in iPSCs [3]; [9]): ~50%; increase of HDR efficiency at the CTNNB locus (CTNNB1 locus in iPSCs [4]; [9]): ~50%
O=c1cc(N2CCOCC2)oc2c(-c3cccc4c3sc3ccccc34)cccc12 [Nu7441, NU7441] | less pronounced improvement | only at the CTNNB locus | only at the CTNNB locus | less pronounced improvement | 
O=C(Nc1ccc(Br)cc1)c1ccc(Br)c(S(=O)(=O)NCc2ccccc2)c1 [RS-1] | did not show significant improvement | did not show significant improvement | did not show significant improvement | did not show significant improvement | 
O=c1[nH]c(=S)[nH]c(N=Cc2ccccc2)c1N=Cc1ccccc1 [SCR7] | did not show significant improvement | did not show significant improvement | did not show significant improvement | did not show significant improvement | 
sgCTNNB1: sgRNA targeting 39 bp before the CTNNB1 stop codon, GCTGATTGCTGTCACCTGG (SEQ ID NO: 5) (listed as DNA, chemistry not given here) |  |  |  |  | cleavage efficiency (CTNNB1 locus in iPSCs [5]): 60%
sgPRDM14: sgRNA targeting the sequence surrounding the PRDM14 stop codon, GAAGACTACTAGCCCTGCC (SEQ ID NO: 11) (listed as DNA, chemistry not given here) |  |  |  |  | cleavage efficiency (PRDM14 locus in iPSCs [6]): ~30%
B1 |  |  |  |  | effect on HDR efficiency at the PRDM14 locus (PRDM14 locus in iPSCs [3]; expression plasmid co-transfected with Cas9, sgRNA and pD-GFP-sg-HA300-300 bp, FACS day 3, P<0.001): significantly decreased; effect on HDR efficiency at the CTNNB1 locus (CTNNB1 locus in iPSCs [4]; expression plasmid co-transfected with Cas9, sgRNA and pD-mNeonGreen-sg-HA300-300 bp, FACS day 3, P<0.001): significantly decreased
